Assay results as given in PubChem BioAssay AID206 (DTP/NCI, 2004).
Records with an inconclusive call do not appear.

System: nude mice, HT29 intrarenal xenograft, tumor weight T/C
Assay: NCI In Vivo Anticancer Drug Screen. Data for tumor model HT29;CX-1 Human Adenocarcinoma (MER+) (intrarenal inoculation) in NU/NU Swiss (nude) mice
Conditions: endpoint: mean tumor weight change, higher = larger tumour
Summary of the method: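 Endpoint measured as tumor size or survival; ratio reported is treated group over vehicle controls.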

## O=C(O)CCCc1ccc(N(CCCl)CCCl)cc1
dose: 0.13 mg/kg/injection, schedule: Q04DX004 (ip), vehicle: Klucel (hydroxypropylcellulose) (HPC)
  T/C: 88 % of control
dose: 0.2 mg/kg/injection, schedule: Q04DX004 (ip), vehicle: Klucel (hydroxypropylcellulose) (HPC)
  T/C: 109 % of control
dose: 0.3 mg/kg/injection, schedule: Q04DX004 (ip), vehicle: Klucel (hydroxypropylcellulose) (HPC)
  T/C: 83 % of control

## CCCCN(CCCC)C(Cl)=Nc1ccccc1
dose: 100.0 mg/kg/injection, schedule: Q04DX004 (sc), vehicle: other
  T/C: 103 % of control
dose: 200.0 mg/kg/injection, schedule: Q04DX004 (sc), vehicle: other
  T/C: 100 % of control
dose: 400.0 mg/kg/injection, schedule: Q04DX004 (sc), vehicle: other
  T/C: 96 % of control
dose: 800.0 mg/kg/injection, schedule: Q04DX004 (sc), vehicle: other
  T/C: 91 % of control

## O=c1n[n+]([O-])ccn1C1OC(CO)C(O)C1O (configuration not stated)
dose: 250.0 mg/kg/injection, schedule: Q04DX004 (sc), vehicle: suspension in saline
  T/C: 31 % of control
dose: 500.0 mg/kg/injection, schedule: Q04DX004 (sc), vehicle: suspension in saline
  T/C: 25 % of control
dose: 1000.0 mg/kg/injection, schedule: Q04DX004 (sc), vehicle: suspension in saline
  T/C: 27 % of control

## Nc1ccc(Cl)cc1N
dose: 450.0 mg/kg/injection, schedule: Q04DX004 (sc), vehicle: saline with Tween-80
  T/C: 41 % of control
dose: 900.0 mg/kg/injection, schedule: Q04DX004 (sc), vehicle: saline with Tween-80
  T/C: 78 % of control
dose: 1800.0 mg/kg/injection, schedule: Q04DX004 (sc), vehicle: saline with Tween-80
  T/C: 30 % of control

## c1ccc([P+](c2ccccc2)(c2ccccc2)c2ccccc2)cc1
dose: 5.0 mg/kg/injection, schedule: Q04DX004 (sc), vehicle: saline
  T/C: 105 % of control
dose: 10.0 mg/kg/injection, schedule: Q04DX004 (sc), vehicle: saline
  T/C: 107 % of control
dose: 20.0 mg/kg/injection, schedule: Q04DX004 (sc), vehicle: saline
  T/C: 68 % of control

## O=S(=O)(CCl)OCCCl
dose: 50.0 mg/kg/injection, schedule: Q04DX004 (sc), vehicle: saline with Tween-80
  T/C: 163 % of control
dose: 100.0 mg/kg/injection, schedule: Q04DX004 (sc), vehicle: saline with Tween-80
  T/C: 105 % of control

## NC(=O)Oc1cccc(OC(N)=O)c1
dose: 50.0 mg/kg/injection, schedule: Q04DX004 (sc), vehicle: suspension in saline
  T/C: 110 % of control
dose: 100.0 mg/kg/injection, schedule: Q04DX004 (sc), vehicle: suspension in saline
  T/C: 102 % of control
dose: 200.0 mg/kg/injection, schedule: Q04DX004 (sc), vehicle: suspension in saline
  T/C: 29 % of control
dose: 400.0 mg/kg/injection, schedule: Q04DX004 (sc), vehicle: suspension in saline
  T/C: 62 % of control

## CCCCCCCCCCCCCCCCCC(=O)OCC(=O)OCC(=O)[C@]1(O)Cc2c(O)c3c(c(O)c2[C@@H](OC2CC(N)C(O)C(C)O2)C1)C(=O)c1c(OC)cccc1C3=O (some centres not stated)
dose: 3.0 mg/kg/injection, schedule: Q01DX010 (sc), vehicle: water
  T/C: 56 % of control
dose: 6.0 mg/kg/injection, schedule: Q01DX010 (sc), vehicle: water
  T/C: 47 % of control
dose: 7.5 mg/kg/injection, schedule: Q04DX004 (sc), vehicle: water
  T/C: 86 % of control
dose: 12.0 mg/kg/injection, schedule: Q01DX010 (sc), vehicle: water
  T/C: 59 % of control
dose: 15.0 mg/kg/injection, schedule: Q04DX004 (sc), vehicle: water
  T/C: 96 % of control
dose: 30.0 mg/kg/injection, schedule: Q04DX004 (sc), vehicle: water
  T/C: 38 % of control

## COc1cc([C@@H]2c3cc4c(c(O)c3C[C@H]3COC(=O)[C@@H]32)OCO4)cc(OC)c1O
dose: 1.0 mg/kg/injection, schedule: Q01DX010 (sc), vehicle: saline
  T/C: 92 % of control
dose: 2.0 mg/kg/injection, schedule: Q01DX010 (sc), vehicle: saline
  T/C: 75 % of control
dose: 4.0 mg/kg/injection, schedule: Q01DX010 (sc), vehicle: saline
  T/C: 106 % of control

## CC(=O)OCC1OC(n2cc(CBr)nn2)C(OC(C)=O)C(OC(C)=O)C1OC(C)=O (configuration not stated)
dose: 200.0 mg/kg/injection, schedule: Q01DX010 (sc), vehicle: saline with Tween-80
  T/C: 79 % of control
dose: 400.0 mg/kg/injection, schedule: Q01DX010 (sc), vehicle: saline with Tween-80
  T/C: 97 % of control
dose: 800.0 mg/kg/injection, schedule: Q01DX010 (sc), vehicle: saline with Tween-80
  T/C: 70 % of control

## ClCCCCCCCCCCc1ccccc1
dose: 100.0 mg/kg/injection, schedule: Q01DX010 (sc), vehicle: Klucel (hydroxypropylcellulose) (HPC)
  T/C: 23 % of control
dose: 200.0 mg/kg/injection, schedule: Q01DX010 (sc), vehicle: Klucel (hydroxypropylcellulose) (HPC)
  T/C: 36 % of control
dose: 400.0 mg/kg/injection, schedule: Q01DX010 (sc), vehicle: Klucel (hydroxypropylcellulose) (HPC)
  T/C: 57 % of control
